In the NIST ThermoML archive (doi:10.1016/j.jct.2010.10.016):

How the values were obtained:
[1] = xn = mol fraction of the nth substance listed; conditions: 101 kPa, Liquid; for viscosity: Capillary tube (Ostwald / Ubbelohde) method; for mass density: Pycnometric method; for speed of sound: Resonance method
[2] = relative permittivity at various frequencies (dimensionless); xn = mol fraction of the nth substance listed; conditions: 101 kPa, Liquid, Frequency=3 MHz, AC method

C[N+](=O)[O-] [nitromethane] + CCCCOCCO
x1 = 1
Conditions	mass density, [1] [kg/m3]	relative permittivity, [2]	speed of sound, [1] [m/s]	viscosity, [1] [mPa·s]
293.15 K	1137.63	37.31	1340.2	0.648
298.15 K	1130.62	36.52	1320.4	–
298.45 K	–	–	–	0.619
303.15 K	1123.6	35.66	1298.1	0.584
308.15 K	1116.86	34.92	1281.2	0.563
313.15 K	1109.87	34.09	1262.8	0.545

COCCO [2-methoxyethan-1-ol] + C[N+](=O)[O-]
x2 = 0
Conditions	mass density, [1] [kg/m3]	relative permittivity, [2]	speed of sound, [1] [m/s]	viscosity, [1] [mPa·s]
293.15 K	964.88	17.38	1359.3	1.708
298.15 K	960.29	16.96	1342.1	1.544
303.15 K	955.77	16.56	1325.1	1.404
308.15 K	951.19	16.16	1313.5	1.246
313.15 K	946.21	15.77	1296.8	1.098
